Source: ChEMBL document CHEMBL4699460, “Integrating DNA-encoded chemical libraries with virtual combinatorial library screening: Optimizing a PARP10 inhibitor” (Bioorg Med Chem Lett, 2020)

How the values were obtained:
[1] = target: T1, Protein mono-ADP-ribosyltransferase PARP10 (Homo sapiens) (UniProt Q53GL7); assay: (§1) Inhibition of N-terminal FLAG-tagged and C-terminal strep-tagged human PARP10 (805 to 1025 residues) expressed in baculovirus infected Sf9 cells assessed as reduction in NAD+-dependent ADP ribosylation using histone as substrate at 1 uM incubated for 1 hr in presence of biotinylated NAD+ and activated DNA by chemiluminescence based microplate reader assay
T1 sequence (whole entry): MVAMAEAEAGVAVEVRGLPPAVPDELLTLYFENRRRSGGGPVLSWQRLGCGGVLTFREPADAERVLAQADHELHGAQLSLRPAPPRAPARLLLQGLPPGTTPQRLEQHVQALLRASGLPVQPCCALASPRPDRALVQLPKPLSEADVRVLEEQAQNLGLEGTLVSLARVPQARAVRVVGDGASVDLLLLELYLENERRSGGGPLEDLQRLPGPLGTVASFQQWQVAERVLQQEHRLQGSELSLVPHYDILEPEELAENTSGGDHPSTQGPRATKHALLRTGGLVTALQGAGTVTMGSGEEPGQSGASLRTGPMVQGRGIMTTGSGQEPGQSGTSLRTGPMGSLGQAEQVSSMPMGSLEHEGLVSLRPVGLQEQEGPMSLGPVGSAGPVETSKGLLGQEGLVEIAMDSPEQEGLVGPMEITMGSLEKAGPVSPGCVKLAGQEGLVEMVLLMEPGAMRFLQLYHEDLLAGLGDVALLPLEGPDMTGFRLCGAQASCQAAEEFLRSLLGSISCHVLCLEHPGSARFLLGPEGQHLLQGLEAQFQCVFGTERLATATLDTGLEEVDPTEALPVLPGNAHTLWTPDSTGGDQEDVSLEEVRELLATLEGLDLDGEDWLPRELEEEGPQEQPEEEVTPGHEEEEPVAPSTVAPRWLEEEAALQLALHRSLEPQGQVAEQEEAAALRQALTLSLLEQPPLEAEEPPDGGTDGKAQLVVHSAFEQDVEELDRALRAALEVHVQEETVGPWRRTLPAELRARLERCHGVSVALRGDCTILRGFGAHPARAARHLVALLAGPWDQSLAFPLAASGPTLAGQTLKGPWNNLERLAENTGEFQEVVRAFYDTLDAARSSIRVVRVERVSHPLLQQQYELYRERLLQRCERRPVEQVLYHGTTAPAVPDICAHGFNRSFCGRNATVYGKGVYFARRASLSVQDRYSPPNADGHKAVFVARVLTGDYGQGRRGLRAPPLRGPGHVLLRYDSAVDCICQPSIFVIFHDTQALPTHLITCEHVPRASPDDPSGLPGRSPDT

[2] = target: T1, Protein mono-ADP-ribosyltransferase PARP10 (Homo sapiens); assay: as §1, with “at 10” for “at 1”, “assay relative to control” for “assay”
[3] = target: Protein mono-ADP-ribosyltransferase PARP14 (Homo sapiens) (UniProt Q460N5); assay: as §1, with “His-GST tagged” for “FLAG-tagged and C-terminal strep-tagged”, “PARP14 (1470” for “PARP10 (805”, “1801” for “1025”, “assay relative to control” for “assay”
[4] = target: Protein mono-ADP-ribosyltransferase PARP14 (Homo sapiens) (UniProt Q460N5); assay: Inhibition of N-terminal His-GST tagged human PARP14 (1470 to 1801 residues) expressed in baculovirus infected Sf9 cells assessed as reduction in NAD+-dependent ADP ribosylation using histone as substrate at 10 uM incubated for 1 hr in presence of biotinylated NAD+ and activated DNA by chemiluminescence based microplate reader assay relative to control

Protein mono-ADP-ribosyltransferase PARP14 (Homo sapiens), sequence (Q460N5 whole entry, the tested form may be a part): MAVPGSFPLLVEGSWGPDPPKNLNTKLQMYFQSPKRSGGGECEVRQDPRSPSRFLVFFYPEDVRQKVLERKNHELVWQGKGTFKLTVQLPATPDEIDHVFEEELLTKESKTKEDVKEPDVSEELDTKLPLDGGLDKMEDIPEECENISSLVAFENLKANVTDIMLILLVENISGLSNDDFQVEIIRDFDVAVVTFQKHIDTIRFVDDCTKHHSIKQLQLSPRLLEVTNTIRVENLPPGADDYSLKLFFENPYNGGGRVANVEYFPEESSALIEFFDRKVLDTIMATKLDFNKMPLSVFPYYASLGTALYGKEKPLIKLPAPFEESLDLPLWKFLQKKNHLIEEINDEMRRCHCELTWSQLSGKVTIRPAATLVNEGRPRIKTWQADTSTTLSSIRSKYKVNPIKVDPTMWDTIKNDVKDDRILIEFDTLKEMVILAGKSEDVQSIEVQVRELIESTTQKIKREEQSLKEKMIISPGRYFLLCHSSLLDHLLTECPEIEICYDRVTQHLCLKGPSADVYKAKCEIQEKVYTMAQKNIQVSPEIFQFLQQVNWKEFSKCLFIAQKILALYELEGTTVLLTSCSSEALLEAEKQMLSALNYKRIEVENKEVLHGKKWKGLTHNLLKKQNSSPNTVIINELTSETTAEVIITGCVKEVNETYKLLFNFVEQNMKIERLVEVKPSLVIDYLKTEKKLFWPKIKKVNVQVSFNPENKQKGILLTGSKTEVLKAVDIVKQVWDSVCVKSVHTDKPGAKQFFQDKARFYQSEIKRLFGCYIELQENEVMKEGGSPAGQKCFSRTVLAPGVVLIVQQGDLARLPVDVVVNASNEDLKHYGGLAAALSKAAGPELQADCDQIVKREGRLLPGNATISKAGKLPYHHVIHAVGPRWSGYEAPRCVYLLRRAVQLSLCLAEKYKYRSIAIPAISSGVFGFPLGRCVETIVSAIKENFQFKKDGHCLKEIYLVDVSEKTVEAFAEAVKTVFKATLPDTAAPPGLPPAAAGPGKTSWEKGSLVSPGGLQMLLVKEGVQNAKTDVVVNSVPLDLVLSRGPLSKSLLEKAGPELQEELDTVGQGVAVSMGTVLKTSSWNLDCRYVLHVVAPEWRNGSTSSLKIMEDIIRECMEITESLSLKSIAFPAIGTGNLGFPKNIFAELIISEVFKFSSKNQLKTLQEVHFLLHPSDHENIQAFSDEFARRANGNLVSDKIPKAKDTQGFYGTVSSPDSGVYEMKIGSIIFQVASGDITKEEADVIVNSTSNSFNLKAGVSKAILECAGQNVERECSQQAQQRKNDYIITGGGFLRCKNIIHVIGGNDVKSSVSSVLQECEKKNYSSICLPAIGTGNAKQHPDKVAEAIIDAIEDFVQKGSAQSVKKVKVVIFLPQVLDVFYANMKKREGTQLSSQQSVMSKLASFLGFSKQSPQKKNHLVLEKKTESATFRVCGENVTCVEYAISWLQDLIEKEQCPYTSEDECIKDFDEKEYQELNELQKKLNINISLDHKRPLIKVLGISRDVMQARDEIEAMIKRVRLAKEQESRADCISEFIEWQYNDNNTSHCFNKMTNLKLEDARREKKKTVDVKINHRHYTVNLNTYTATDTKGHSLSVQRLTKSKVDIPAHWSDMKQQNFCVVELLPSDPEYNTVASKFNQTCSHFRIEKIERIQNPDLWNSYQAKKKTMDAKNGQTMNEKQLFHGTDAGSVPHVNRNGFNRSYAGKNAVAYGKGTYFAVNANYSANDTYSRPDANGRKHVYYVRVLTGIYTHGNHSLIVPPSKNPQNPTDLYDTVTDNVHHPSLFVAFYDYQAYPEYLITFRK

Row | inhibition [1] [%] | inhibition [2] [%] | inhibition [3] [%] | inhibition [4] [%] | SMILES
1 | 25 | 90 | 21 |  | CC1(CNC(=O)COc2cccc3c2CCCC3=O)CCN(C(=O)CCc2nc3ccccc3[nH]c2=O)CC1
2 |  |  |  | < 25 | CNC(=O)[C@H](CNC(=O)CCc1nc2ccccc2[nH]c1=O)NC(=O)c1ccc2c(c1)CCCC2=O
